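Grown in 96-well plates, cells were treated for 48 hours with each compound at five concentrations. Insufficient inhibition: endpoint recorded as highest concentration tested. Here, GI50 denotes the concentration required for 50% inhibition of growth. TGI denotes the concentration required for complete inhibition of growth.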
Assays:
Test in all cases: inhibition of tumour cell growth, NCI panel, 48 h
[1] = system: 786-0 renal
[2] = system: A498 renal
[3] = system: A549 NSCLC
[4] = system: ACHN renal
[5] = system: BT-549 breast
[6] = system: CAKI-1 renal
[7] = system: CCRF-CEM leukemia
[8] = system: COLO 205 colon
[9] = system: DU-145 prostate
[10] = system: EKVX NSCLC
[11] = system: HCC-2998 colon
[12] = system: HCT-116 colon
[13] = system: HCT-15 colon
[14] = system: HL-60(TB) leukemia
[15] = system: HOP-62 NSCLC
[16] = system: HOP-92 NSCLC
[17] = system: HS 578T breast
[18] = system: HT29 colon
[19] = system: IGROV1 ovarian
[20] = system: K-562 leukemia
[21] = system: KM12 colon
[22] = system: LOX IMVI melanoma
[23] = system: M14 melanoma
[24] = system: MALME-3M melanoma
[25] = system: MCF7 breast
[26] = system: MDA-MB-231 breast
[27] = system: MDA-MB-435
[28] = system: MDA-MB-468 breast
[29] = system: MOLT-4 leukemia
[30] = system: NCI-H226 lung
[31] = system: NCI-H23 lung
[32] = system: NCI-H460 lung
[33] = system: NCI-H522 lung
[34] = system: NCI/ADR-RES ovarian
[35] = system: OVCAR-3 ovarian
[36] = system: OVCAR-4 ovarian
[37] = system: OVCAR-5 ovarian
[38] = system: OVCAR-8 ovarian
[39] = system: PC-3 prostate
[40] = system: RPMI-8226 leukemia
[41] = system: RXF 393 renal
[42] = system: SF-268 CNS
[43] = system: SF-295 CNS
[44] = system: SF-539 CNS
[45] = system: SK-MEL-2 melanoma
[46] = system: SK-MEL-28 melanoma
[47] = system: SK-MEL-5 melanoma
[48] = system: SK-OV-3 ovarian
[49] = system: SN12C renal
[50] = system: SNB-19 CNS
[51] = system: SNB-75 CNS
[52] = system: SR leukemia
[53] = system: SW-620 colon
[54] = system: T-47D breast
[55] = system: TK-10 renal
[56] = system: U251 CNS
[57] = system: UACC-257 melanoma
[58] = system: UACC-62 melanoma
[59] = system: UO-31 renal

COc1ccc(C(=O)/C=C/c2cc(C(F)(F)F)cc(C(F)(F)F)c2)cc1S(N)(=O)=O
GI50 [1]: 1.64 µM | TGI [1]: 3.32 µM | GI50 [2]: 16.9 µM | TGI [2]: 30.5 µM | GI50 [3]: 1.83 µM | TGI [3]: 5.64 µM | GI50 [4]: 1.54 µM | TGI [4]: 2.91 µM | GI50 [5]: 2.27 µM | TGI [5]: 3.93 µM | GI50 [6]: 1.58 µM | TGI [6]: 3.36 µM | GI50 [7]: 0.299 µM | TGI [7]: > 100 µM | GI50 [8]: 2.02 µM | TGI [8]: 3.94 µM | GI50 [9]: 2.05 µM | TGI [9]: 4.83 µM | GI50 [10]: 1.58 µM | TGI [10]: 2.97 µM | GI50 [11]: 1.54 µM | TGI [11]: 2.87 µM | GI50 [12]: 0.655 µM | TGI [12]: 2.3 µM | GI50 [13]: 0.893 µM | TGI [13]: 2.38 µM | GI50 [14]: 1.75 µM | TGI [14]: 6.29 µM | GI50 [15]: 2.22 µM | TGI [15]: 4.4 µM | GI50 [16]: 1.98 µM | TGI [16]: 5.8 µM | GI50 [17]: 2.68 µM | TGI [17]: 9.86 µM | GI50 [18]: 1.26 µM | TGI [18]: 2.77 µM | GI50 [19]: 1.74 µM | TGI [19]: 3.32 µM | GI50 [20]: 0.788 µM | TGI [20]: > 100 µM | GI50 [21]: 2.07 µM | TGI [21]: 4.92 µM | GI50 [22]: 0.573 µM | TGI [22]: 1.78 µM | GI50 [23]: 1.92 µM | TGI [23]: 4.85 µM | GI50 [24]: 1.81 µM | TGI [24]: 3.33 µM | GI50 [25]: 0.439 µM | TGI [25]: 1.68 µM | GI50 [26]: 1.57 µM | TGI [26]: 3.11 µM | GI50 [27]: 1.35 µM | TGI [27]: 2.97 µM | GI50 [28]: 1.54 µM | TGI [28]: 2.91 µM | GI50 [29]: 1.79 µM | TGI [29]: 9.16 µM | GI50 [30]: 2.14 µM | TGI [30]: 4.59 µM | GI50 [31]: 1.55 µM | TGI [31]: 3.01 µM | GI50 [32]: 1.56 µM | TGI [32]: 3.28 µM | GI50 [33]: 1.56 µM | TGI [33]: 3.24 µM | GI50 [34]: 1.51 µM | TGI [34]: 3.72 µM | GI50 [35]: 1.56 µM | TGI [35]: 3.31 µM | GI50 [36]: 1.85 µM | TGI [36]: 4.44 µM | GI50 [37]: 1.84 µM | TGI [37]: 3.36 µM | GI50 [38]: 1.49 µM | TGI [38]: 3.87 µM | GI50 [39]: 2.19 µM | TGI [39]: 5.99 µM | GI50 [40]: 0.558 µM | TGI [40]: > 100 µM | GI50 [41]: 1.76 µM | TGI [41]: 3.34 µM | GI50 [42]: 2.38 µM | TGI [42]: 7.48 µM | GI50 [43]: 1.7 µM | TGI [43]: 3.1 µM | GI50 [44]: 1.68 µM | TGI [44]: 3.07 µM | GI50 [45]: 1.74 µM | TGI [45]: 3.25 µM | GI50 [46]: 1.67 µM | TGI [46]: 3.07 µM | GI50 [47]: 1.73 µM | TGI [47]: 3.15 µM | GI50 [48]: 3.65 µM | TGI [48]: 16.3 µM | GI50 [49]: 1.47 µM | TGI [49]: 2.86 µM | GI50 [50]: 1.6 µM | TGI [50]: 2.98 µM | GI50 [51]: 1.38 µM | TGI [51]: 3.33 µM | GI50 [52]: 0.498 µM | TGI [52]: > 100 µM | GI50 [53]: 1.03 µM | TGI [53]: 2.44 µM | GI50 [54]: 1.69 µM | TGI [54]: 3.55 µM | GI50 [55]: 2.05 µM | TGI [55]: 3.86 µM | GI50 [56]: 1.29 µM | TGI [56]: 2.62 µM | GI50 [57]: 1.51 µM | TGI [57]: 3.18 µM | GI50 [58]: 1.51 µM | TGI [58]: 3 µM | GI50 [59]: 1.45 µM | TGI [59]: 2.76 µM
